Holding throughout (type): cell-based, human
Assay [1] concerns p-ERK in AGS cells (KRAS G12D mutation). The assay is described as follows: Cell p-ERK assay (HTRF, Advance ERK phospho-T202/Y204 kit). The conditions noted are these: AGS cells, 3 hours incubation with compound, HTRF, read-out: AGS p-ERK IC50. As to the method: AGS was purchased from ATCC; catalog No: CRL-1739; F12K was purchased from Gibco; catalog No: 21127-022; FBS was purchased from Gibco; catalog No: 10099-141C; trypsin (containing EDTA) was purchased from Gibco, catalog No: 25200-072; DMSO was purchased from VWRAMRESCO; catalog No: 0231-500 ML; 96-well cell culture plates were purchased from Corning; catalog No: 3599; white opaque 96-well plates were purchased from Cisbio; catalog No: 66PL96025; Advance ERK phospho-T202/Y204 kit was purchased from Cisbio; catalog No: 64AERPEH; cell counters were purchased from CHEMOMETEC; model No: NC-200; microplate reader was purchased from PerkinElmer; model No: Envison.
AGS is an endogenous human gastric adenocarcinoma cell line containing the KRAS^G12D mutation, cultured in F12K+10% FBS medium. On the first day of the experiment, cells in the logarithmic growth phase were taken, digested with trypsin (containing EDTA), collected, and counted. Approximately 20000 cells/well were seeded in a 96-well cell culture plate and cultured overnight in an incubator with 5% CO2. 1000X stock solutions of compounds at a 3.16-fold concentration gradient were prepared using DMSO, and diluted 200-fold into a 5X compound stock solution using the medium described above. The 5X compound stock solution was added to each cell culturing well the day after cell seeding at a final concentration of 1X and a DMSO content of 0.1%. DMSO was used as a control in the experiment. After the compound was added and the incubation was kept for 3 hours, the medium in the culture wells was removed. 50 μl of Cell lysis solution (from Advance ERK phospho-T202/Y204 kit, the same below) was added to each well, mixed well, and incubated for 30 minutes and then 16 μl of the mixed solution was transferred to a white opaque 96-well plate, another 16 μl of cell lysis solution was added to a well as a blank well. After transferring, 4 μl of p-ERK HTRF antibody mixture (from Advance ERK phospho-T202/Y204 kit) was added to each well. After incubation for 4 hours, HTRF fluorescence value (RLU) was read by a microplate reader, and p-ERK level inhibition rate (IR (%)=(RLU control-RLU compound)/(RLU control-RLU blank)×100%) of the compounds was calculated. The concentration of the compounds and corresponding cell p-ERK level inhibition rate were fitted using Prism 8 four-parameters method, and the IC50 value was calculated.

The test system of assay [2] is AsPC-1 cells (KRAS G12D mutation). The assay is described as follows: Cell proliferation inhibition assay, 3D, CellTiter-Glo 3D, AsPC-1. The conditions noted are these: AsPC-1 3D sphere model, 5 days incubation. An excerpt: (§1) AsPC-1 was purchased from ATCC; catalog No: CRL-1682; AGS was purchased from ATCC; catalog No: CRL-1739; RPMI1640 was purchased from Gibco; catalog No: 11875-093 2235123; F12K was purchased from Gibco; catalog No: 21127-022; FBS was purchased from Gibco; catalog No: 10099-141C; trypsin (containing EDTA) was purchased from Gibco; catalog No: 25200-072; CellTiter Glo-3D was purchased from Progema; catalog No: G9683; 384-well sphere plates were purchased from Corning; catalog No: 3830; white opaque 384-well plates were purchased from Corning; catalog No: 3570; cell counters were purchased from CHEMOMETEC; model: NC-200; microplate reader was purchased from PerkinElmer; model: Envison;
(§2) AsPC-1 is an endogenous human pancreatic cancer cell containing KRAS^G12D mutation, cultured in RPMI-1640 medium containing 10% FBS; AGS is a human gastric cancer cell line containing KRAS^G12D, cultured in F-12K medium containing 10% FBS. Cells in the logarithmic growth phase were taken, digested with trypsin (containing EDTA), collected, and counted. 800 AsPC-1 cells/well or 400 AGS cells/well, respectively, were seeded in a 384-well sphere plate and cultured overnight at 5% CO2 to establish a 3D cell model. 1000X stock solutions of compounds at a 3.16-fold concentration gradient of were prepared using DMSO, diluted 100-fold into a 10X compound stock solution using the medium described above. The 10X compound stock solution was added to each cell on 2nd day after cell seeding at a final concentration of 1X and a DMSO content of 0.1%. DMSO was used as a control in the experiment, and the medium was used as blank. After the addition of the compounds, the cells were incubated for 5 days. 30 μl of CellTiter-Glo work solution was added to each well, mixed well, and incubated for 30 minutes. After standing at room temperature for 30 minutes, 40 μl of the mixed solution was transferred to an opaque 384-well plate with a white clear bottom. Luminescence chemiluminescence value was read by a microplate reader, and the cell proliferation inhibition rate (IR (%)=(RLU control-RLU compound)/(RLU control-RLU blank)×100%) was calculated. The gradiently diluted concentration of the compounds and corresponding cell proliferation inhibition rate were fitted using XLFit four-parameters method, and the IC50 value was calculated. […] The results of some exemplary compounds are shown in Table 2 (“−” represents untested).

Assay [3] has as its system AGS cells (KRAS G12D). The assay is described as follows: Cell proliferation inhibition assay, 3D, CellTiter-Glo 3D, AGS. To be noted: AGS 3D sphere model, 5 days incubation.
From the text: as §1, §2

Read-outs that look alike come from different tables or passages of the source.

Broadly, the IC50 is the midpoint of a concentration-inhibition curve. As to `C#Cc1cccc2cc(N)cc(-c3nc4c5c(nc(OCC6(CO)CC6)nc5c3F)N3C[C@H]5CC[C@H](N5)[C@H]3[C@H](C)O4)c12` [Example Z701, (1-((((5S,5aS,6S,9R)-2-(3-amino-8-ethynylnaphthalen-1-yl)-1-fluoro-5-methyl-5a,6,7,8,9,10-hexahydro-5H-4-oxa-3,10a, 11,13,14-pentaaza-6,9-methanonaphtho[1,8-ab]heptalen-12-yl)oxy)methyl)cyclopropyl)methanol], the IC50 in assay [1] (Homo sapiens) is 39.5 nM; in assay [2] (Homo sapiens, ASPC1, 120 h) it was 245 nM; in assay [3] (Homo sapiens, 120 h) it was 230 nM.

Consider `C=C1CN2C[C@H](F)CC2(COc2nc3c4c(nc(-c5cccc(Cl)c5C(F)(F)F)c(F)c4n2)O[C@@H](C)[C@@H]2[C@@H]4CC[C@H](CN32)N4)C1` (stereo partly drawn) [Example Z682, (5S,5aS,6S,9R)-2-(3-chloro-2-(trifluoromethyl)phenyl)-1-fluoro-12-(((2R)-2-fluoro-6-methylenetetrahydro-1H-pyrrolizin-7a (5H)-yl)methoxy)-5-methyl-5a,6,7,8,9,10-hexahydro-5H-4-oxa-3,10a, 11,13,14-pentaaza-6,9-methanonaphtho[1,8-ab]heptalene], for which the IC50 was 82 nM in assay [1] (Homo sapiens); 237 nM in assay [2] (Homo sapiens, ASPC1, 120 h); 146 nM in assay [3] (Homo sapiens, 120 h).

Regarding `C#Cc1cccc2cccc(-c3nc4c5c(nc(OC[C@@]67CCCN6CCC7=C)nc5c3F)N3C[C@H]5CC[C@H](N5)[C@H]3[C@H](C)O4)c12` [Example Z702, (5S,5aS,6S,9R)-2-(8-ethynylnaphthalen-1-yl)-1-fluoro-5-methyl-12-(((S)-1-methylenetetrahydro-1H-pyrrolizin-7a (5H)-yl)methoxy)-5a,6,7,8,9,10-hexahydro-5H-4-oxa-3,10a, 11,13,14-pentaaza-6,9-methanonaphtho[1,8-ab]heptalene], the IC50 in assay [1] (Homo sapiens) is 11.1 nM; in assay [2] (Homo sapiens, ASPC1, 120 h) it was 51.9 nM; in assay [3] (Homo sapiens, 120 h) it was 26.8 nM.

On to `C[C@@H]1Oc2nc(-c3cc(N)cc4ccc(F)c(F)c34)c(F)c3nc(OCC4(CN5CCOCC5)CC4)nc(c23)N2C[C@H]3CC[C@H](N3)[C@@H]12` [Example Z719, 5,6-difluoro-4-((5S,5aS,6S,9R)-1-fluoro-S-methyl-12-((1-(morpholinomethyl)cyclopropyl)methoxy)-5a,6,7,8,9,10-hexahydro-5H-4-oxa-3,10a, 11,13,14-pentaaza-6,9-methanonaphtho[1,8-ab]heptalene-2-yl) naphthalen-2-amine], for which the IC50 in assay [1] is 1.16 nM; in assay [2], 3 nM; in assay [3], 1.03 nM.

For `C#Cc1cccc2c(F)c(N)cc(-c3nc4c5c(nc(OCC67CCCN6CC(F)(F)C7)nc5c3F)N3C[C@H]5CC[C@H](N5)[C@H]3[C@H](C)O4)c12` (stereo partly drawn) [Example Z725, 4-((5S,5aS,6S,9R)-12-((2,2-difluorotetrahydro-1H-pyrrolizin-7a (5H)-yl)methoxy)-1-fluoro-5-methyl-5a,6,7,8,9,10-hexahydro-5H-4-oxa-3,10a,11,13,14-pentaaza-6,9-methanonaphtho[1,8-ab]heptalen-2-yl)-5-ethynyl-1-fluoronaphthalen-2-amine], the IC50 in assay [1] (Homo sapiens) was 42.3 nM; in assay [2] (Homo sapiens, ASPC1, 120 h), 106 nM; in assay [3] (Homo sapiens, 120 h), 62.7 nM.

The compound `C#Cc1c(F)ccc2cccc(-c3nc4c5c(nc(OCC67CC(=C)CN6C[C@@H](F)C7)nc5c3F)N3C[C@H]5CC[C@H](N5)[C@H]3[C@H](C)O4)c12` (stereo partly drawn) [Example Z634, (5S,5aS,6S,9R)-2-(8-ethynyl-7-fluoronaphthalen-1-yl)-1-fluoro-12-(((2S)-2-fluoro-6-methylenetetrahydro-1H-pyrrolizin-7a (5H)-yl)methoxy)-5-methyl-5a,6,7,8,9,10-hexahydro-5H-4-oxa-3,10a,11,13,14-pentaaza-6,9-methanonaphtho[1,8-ab]heptalene] came in with an IC50 in assay [2] (Homo sapiens, ASPC1, 120 h) of 883 nM.

Turning to `C=C1CN2CCCC2(COc2nc3c4c(nc(-c5cccc6cccc(Cl)c56)c(F)c4n2)O[C@@H](CC)[C@@H]2[C@@H]4CC[C@H](CN32)N4)C1` (stereo partly drawn) [Example Z596, (5S,5aS,6S,9R)-2-(8-chloronaphthalen-1-yl)-5-ethyl-1-fluoro-12-((2-methylenetetrahydro-1H-pyrrolizin-7a (5H)-yl)methoxy)-5a,6,7,8,9,10-hexahydro-5H-4-oxa-3,10a,11,13,14-pentaaza-6,9-methanonaphtho[1,8-ab]heptalene], the IC50 is 411 nM in assay [2] (Homo sapiens, ASPC1, 120 h) and 268 nM in assay [3] (Homo sapiens, 120 h).

As for `C#Cc1c(F)ccc2cccc(-c3nc4c5c(nc(OCC67C[C@H](OC)CN6CCC7=C)nc5c3F)N3C[C@H]5CC[C@H](N5)[C@H]3[C@H](C)O4)c12` (stereo partly drawn) [Example Z694, (5S,5aS,6S,9R)-2-(8-ethynyl-7-fluoronaphthalen-1-yl)-1-fluoro-12-(((6S)-6-methoxy-1-methylenetetrahydro-1H-pyrrolizin-7a (5H)-yl)methoxy)-5-methyl-5a,6,7,8,9,10-hexahydro-5H-4-oxa-3,10a, 11,13,14-pentaaza-6,9-methanonaphtho[1,8-ab]heptalene], the IC50 is 405 nM in assay [2] (Homo sapiens, ASPC1, 120 h) and 397 nM in assay [3] (Homo sapiens, 120 h).

For the compound `C#Cc1c(F)ccc2cccc(-c3nc4c5c(nc(OCC67CC(=C)CN6CC[C@H]7OC)nc5c3F)N3C[C@H]5CC[C@H](N5)[C@H]3[C@H](C)O4)c12` (stereo partly drawn) [Example Z704, (58,5aS,6S,9R)-2-(8-ethynyl-7-fluoronaphthalen-1-yl)-1-fluoro-12-(((1R)-1-methoxy-6-methylenetetrahydro-1H-pyrrolizin-7a (5H)-yl)methoxy)-5-methyl-5a,6,7,8,9,10-hexahydro-5H-4-oxa-3,10a, 11, 13,14-pentaaza-6,9-methanonaphtho[1,8-ab]heptalene], the IC50 was found to be 542 nM in assay [1] (Homo sapiens) and 688 nM in assay [2] (Homo sapiens, ASPC1, 120 h).

`C#Cc1c(F)ccc2cccc(-c3nc4c5c(nc(OC[C@]67CCCN6C[C@@H]6C[C@@H]67)nc5c3F)N3C[C@H]5CC[C@H](N5)[C@H]3[C@H](C)O4)c12` [Example Z626-1, (5S,5aS,6S,9R)-2-(8-ethynyl-7-fluoronaphthalen-1-yl)-1-fluoro-12-(((1aR,6aR,6bS)-hexahydrocyclopropa[a]pyrrolizin-6a (4H)-yl)methoxy)-5-methyl-5a,6,7,8,9,10-hexahydro-5H-4-oxa-3,10a, 11,13, 14-pentaaza-6,9-methanonaphtho[1,8-ab]heptalene]: the half-inhibitory concentration (IC50) in assay [1] (Homo sapiens) was found to be 411 nM; in assay [3] (Homo sapiens, 120 h), 502 nM.

Source of the values: US20250186456A1, “PYRIMIDINE-FUSED CYCLIC COMPOUND AND PREPARATION METHOD AND USE THEREOF” (Genfleet Therapeutics (Shanghai) Inc., priority 2021, published 2025).
